Reference: patent US6503906B1 (priority 2002, dated 2003)
≈ marks a conversion by molar mass, not a printed value.

What was measured:
[1] = test system: inhalational anthrax; conditions: human, in vivo; cited from earlier work
[2] = test system: anthrax; assay: microbe, parasite or virus in culture; format: cell-based; conditions: Bacillus anthracis, read-out: MIC against anthrax, mid point adopted in the models
[3] = test system: gram positive and negative bacteria; conditions: human, in vivo; cited from earlier work
[4] = test system: anthrax; parameters: species or system human
[5] = test system: most other infectious organisms; conditions: in vivo; cited from earlier work
[6] = test system: Bacillus anthracis spores; conditions: rhesus monkey, in vivo; cited from earlier work

O=C(O)c1cn(C2CC2)c2cc(N3CCNCC3)c(F)cc2c1=O [ciprofloxacin]
overall survival of the US patients [1]: 55% | survival rate of anthrax patients treated with the drug [1]: 50˜60% | MIC [2]: 0.07 µg/mL (≈ 0.211 µM) | MIC range of the bacteria in the literature study [3]: 0.008 to 0.4 µg/mL | time to complete bacteria eradication [3]: more than 10 days | drop of mortality rate [4]: 2 folds | reduction of mortality rate with optimized regimens compared to currently recommended regimens [4]: up to 2 folds | effectiveness against most other infectious organisms [5]: over 80% | protection from the disease [6]: adequately protected from the disease | survival rate of ciprofloxacin-treated animals [6]: 90%
